Data: PubChem BioAssay AID248 (DTP/NCI, 2004)
“And” between values parts separate entries of the source, which are not always exact repeats. Equal values may be shown once. Toxic doses and inconclusive results are not listed. Rule as the data show it: active = T/C of 150% or more; inactive = T/C below 125%.

Tested on: L1210 leukemia ip in BDF1 mice, survival T/C
Experiment: NCI In Vivo Anticancer Drug Screen. Data for tumor model L1210 Leukemia (intraperitoneal) in B6D2F1 (BDF1) mice
Conditions: endpoint: mean survival time, higher = longer survival
Summary of the method: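 Read-out is survival time, reported as the treated-group measurement over the vehicle-control measurement.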

[1] = dose: 100.0 mg/kg/injection, schedule: Q01DX001 (ip), vehicle: saline
[2] = dose: 100.0 mg/kg/injection, schedule: Q01DX009 (ip), vehicle: saline with Tween-80
[3] = dose: 100.0 mg/kg/injection, schedule: Q04DX002 (ip), vehicle: saline with Tween-80
[4] = dose: 200.0 mg/kg/injection, schedule: Q01DX009 (ip), vehicle: saline with Tween-80
[5] = dose: 200.0 mg/kg/injection, schedule: Q04DX002 (ip), vehicle: saline with Tween-80
[6] = dose: 400.0 mg/kg/injection, schedule: Q01DX009 (ip), vehicle: saline with Tween-80
[7] = dose: 400.0 mg/kg/injection, schedule: Q04DX002 (ip), vehicle: saline with Tween-80
[8] = dose: 200.0 mg/kg/injection, schedule: Q01DX001 (ip), vehicle: saline
[9] = dose: 400.0 mg/kg/injection, schedule: Q01DX001 (ip), vehicle: saline

Measured: T/C

NC(=NCc1ccccc1)C(F)(F)C(F)(F)F
inactive: dose: 44.0 mg/kg/injection, schedule: Q01DX Z (ip), vehicle: other 103 % of control and 118 % of control | dose: 66.0 mg/kg/injection, schedule: Q01DX Z (ip), vehicle: other 100 % of control and 101 % of control | dose: 100.0 mg/kg/injection, schedule: Q01DX Z (ip), vehicle: other 103 % of control and 90 % of control | dose: 150.0 mg/kg/injection, schedule: Q01DX Z (ip), vehicle: other 92 % of control and 90 % of control

CNC(=O)NS(=O)(=O)c1ccc([N+](=O)[O-])cc1
inactive: dose: 100.0 mg/kg/injection, schedule: Q01DX001 (ip), vehicle: carboxymethylcellulose (CMC) 95 % of control | dose: 200.0 mg/kg/injection, schedule: Q01DX001 (ip), vehicle: carboxymethylcellulose (CMC) 91 % of control | dose: 400.0 mg/kg/injection, schedule: Q01DX001 (ip), vehicle: carboxymethylcellulose (CMC) 92 % of control

CC(=O)Nc1ccc(/C=N/NC(=O)c2cccc3ccccc23)cc1
inactive: [1] 86 % of control

Cc1c(-c2ccccc2)sc(/N=C/c2ccc(Cl)c(Cl)c2)c1C#N
inactive: [2] 103 % of control and 104 % of control | [3] 96 % of control and 101 % of control | [4] 103 % of control and 108 % of control | [5] 97 % of control and 104 % of control | [6] 93 % of control and 97 % of control | [7] 104 % of control and 115 % of control

Cc1ccc(S(=O)(=O)N(CC2OCC3OC(C)(C)OC23)N=O)cc1 (configuration not stated)
inactive: dose: 75.0 mg/kg/injection, schedule: Q01DX001 (ip), vehicle: saline 100 % of control | dose: 150.0 mg/kg/injection, schedule: Q01DX001 (ip), vehicle: saline 98 % of control | dose: 300.0 mg/kg/injection, schedule: Q01DX001 (ip), vehicle: saline 98 % of control

CC1(C)c2ccccc2N(CCCN)c2ccccc21
inactive: dose: 3.25 mg/kg/injection, schedule: Q01DX001 (ip), vehicle: saline 93 % of control | dose: 6.5 mg/kg/injection, schedule: Q01DX001 (ip), vehicle: saline 93 % of control | dose: 13.0 mg/kg/injection, schedule: Q01DX001 (ip), vehicle: saline 96 % of control | dose: 50.0 mg/kg/injection, schedule: Q01DX001 (ip), vehicle: saline 95 % of control | [1] 106 % of control

COc1cc(C)nc2ccc(Cc3ccc4nc(C)cc(OC)c4c3)cc12
inactive: [1] 94 % of control | [8] 93 % of control | [9] 96 % of control

Nc1ccccc1SC1CC(=O)N(c2ccc(Oc3ccc(Cl)cc3)cc2)C1=O (configuration not stated)
inactive: dose: 75.0 mg/kg/injection, schedule: Q01DX009 (ip), vehicle: Klucel (hydroxypropylcellulose) (HPC) 87 % of control | dose: 150.0 mg/kg/injection, schedule: Q01DX009 (ip), vehicle: Klucel (hydroxypropylcellulose) (HPC) 98 % of control | dose: 300.0 mg/kg/injection, schedule: Q01DX009 (ip), vehicle: Klucel (hydroxypropylcellulose) (HPC) 92 % of control

C1CCC2(CC1)SC1(CCCCC1)SC1(CCCCC1)S2
inactive: dose: 100.0 mg/kg/injection, schedule: Q01DX009 (ip), vehicle: other 94 % of control | dose: 100.0 mg/kg/injection, schedule: Q04DX003 (ip), vehicle: other 95 % of control | dose: 200.0 mg/kg/injection, schedule: Q01DX009 (ip), vehicle: other 95 % of control | dose: 200.0 mg/kg/injection, schedule: Q04DX003 (ip), vehicle: other 97 % of control | dose: 400.0 mg/kg/injection, schedule: Q01DX009 (ip), vehicle: other 92 % of control | dose: 400.0 mg/kg/injection, schedule: Q04DX003 (ip), vehicle: other 97 % of control

Cn1c(Cl)nc2c(Cl)nc(Cl)nc21
inactive: dose: 6.25 mg/kg/injection, schedule: Q01DX009 (ip), vehicle: Klucel (hydroxypropylcellulose) (HPC) 102 % of control | dose: 12.5 mg/kg/injection, schedule: Q01DX009 (ip), vehicle: Klucel (hydroxypropylcellulose) (HPC) 102 % of control | [1] 92 % of control | [8] 94 % of control | [9] 94 % of control

CC(=O)n1cc(C2CC(=O)OC3=C2C(=O)CCC3)c2ccccc21 (configuration not stated)
inactive: [2] 93 % of control | dose: 100.0 mg/kg/injection, schedule: Q04DX003 (ip), vehicle: saline with Tween-80 89 % of control | [4] 93 % of control | dose: 200.0 mg/kg/injection, schedule: Q04DX003 (ip), vehicle: saline with Tween-80 89 % of control | [6] 97 % of control | dose: 400.0 mg/kg/injection, schedule: Q04DX003 (ip), vehicle: saline with Tween-80 91 % of control

O=C1c2cccc3cc([N+](=O)[O-])cc(c23)C(=O)N1O
inactive: [1] 101 % of control | [8] 97 % of control | [9] 107 % of control

O=C(O)C1(c2ccccc2)OCCO1
inactive: [2] 95 % of control | [4] 94 % of control | [6] 95 % of control

O=C(O)c1cc(Br)ccc1Br
inactive: [3] 102 % of control | [5] 110 % of control | [7] 105 % of control

O=S1(=O)CC2(C1)OCCO2
inactive: dose: 100.0 mg/kg/injection, schedule: Q04DX002 (ip), vehicle: Klucel (hydroxypropylcellulose) (HPC) 94 % of control | dose: 200.0 mg/kg/injection, schedule: Q04DX002 (ip), vehicle: Klucel (hydroxypropylcellulose) (HPC) 94 % of control

CC1=C[S+](c2ccccc2)c2cccc3cc4ccccc4c1c23 (configuration not stated)
inactive: dose: 2.5 mg/kg/injection, schedule: Q01DX009 (ip), vehicle: saline with Tween-80 119 % of control
